Laboratory results taken from patent publication US20220325242A1, “IDH2 INHIBITION FOR PRODUCING T-CELLS AND B-CELLS WITH A MEMORY PHENOTYPE” (Universite de Lausanne, priority 2019, published 2022).

Key:
[1] = system: histone H3 (H3K4-3Me, H3K27-Ac) in OT1 T-cells; assay: Western blot of histone H3 modifications in OT1 T-cells; assay type: cell-based, mouse; conditions: day 7, 5 μM day 0-3, western blot, versus DMSO
Experimental: Methods: OT1 splenocytes were activated and cultured with 5 μM AG221 or DMSO as described in Example 2. After 3 days, the cells were washed and the IDH2 inhibitor was washed out as well. The cells were then cultured for an additional 4 days in the absence of AG221. At day 7, the cells were collected and washed once with PBS. 50′000 cells were collected for ATAC-seq while the remaining cell pellet was lysed in extraction buffer (20 mM Tris HCl, 150 mM NaCl, 1% Triton X-100, 10% glycerol, 5 mM EDTA) supplemented with Complete Mini protease inhibitor (Roche) for wester blotting.
For western blotting, an equal amount of protein (as measure by the BCA protein assay kit, Thermo Scientific) was size-separated on a 12.5% polyacrylamide gel and transferred to a 0.2 μm nitrocellulose membrane (Bio-Rad). The following antibodies were used: β-Actin (AC-74) from Sigma Aldrich, H3K4-trimethyl (C42D8) and H3K27-acetyl (D5E4) from Cell Signaling, and appropriate HRP-labelled secondary antibodies (Santa Cruz). The signal was visualized with ECLTM Select Western Blotting Detection Reagent from Sigma Aldrich or SuperSignal West Femto Maximum Sensitivity Substrate from Thermo Scientific and acquired by the Fusion FX from Vilber.

[2] = system: human CD8+ T-cells from umbilical cord blood; assay: CD62L flow cytometry of human cord blood mononuclear cells (CBMC); assay type: cell-based
Experimental: Methods: Mononuclear Cells were isolated from fresh umbilical cord blood on a Percoll Gradient (CBMCs). 10^4 CBMC's were seeded per well in a round bottom 96-well plate in RPMI with 10% human serum, and activated with (magnetic) αCD3/CD28 at a 1:2 cell:bead ratio and 300 U/ml rhIL-2, in the presence of 5 μM AG221 or DMSO, or 1 μM MK2206 (AKT inhibitor). After 11 days of culture, CD62L expression was analyzed by flow cytometry on a fraction of the cells (FIG. 15A). The other cells were washed 2 times and placed in a magnet to remove the inhibitors and the αCD3/CD28 beads. The cells were then rested for 4 hours before restimulating them for 4 hours with 1 ng/ml Phorbol 12-Myristate 13-Acetate (PMA, a PKC activator) and 50 μg/ml Ionomycin (a Ca^2+ ionophore, activating NF-KB and NFAT) in the presence of 50 μ/ml golgi inhibitor (Brefeldin A, BFA), allowing for the measurement of intracellular accumulation of different cytokines by flow cytometry.

[3] = system: Sell (CD62L) mRNA in OT1 cells; assay: Sell (CD62L) gene expression by quantitative real time RT-PCR in OT1 cells; assay type: cell-based, mouse
Experimental: Example 2. In vitro culture of splenocytes comprising CD8+ T-cells. OT1 splenocytes (as described in Example 1) were cultured for 3 days at a concentration of 10^6 cells per mL in RPMI medium (Gibco 61870-01) supplemented with 10% FCS, (Gibco 10270-106), 1% Penicillin/Streptomycin (P/S; Gibco 15070-063), 0.1% 13-mercaptoethanol, 1% HEPES (Gibco 15630-080), 1× Non-essential amino acids (Gibco 11140-035), 1% L-glutamine (Gibco 25030-081), 1 mM Sodium Pyruvate (Gibco 11360-039), 100 U/m1 hIL-2 (Glaxo-IMB) and 1 μg/ml ovalbumin N4 peptide (SIINFEKL). To evaluate the effects of IDH2 inhibition on T-cell differentiation, 5 μM of a small molecule IDH2 inhibitor (AG221 or AGI6780) or a DMSO solvent control was added during this 3-day culture period. […] At day 3 and day 7, the activation and differentiation state of CD8+ T-cells was determined by gene expression analysis, flow cytometry and extracellular metabolic flux analyses (see Example 3).
a) Gene expression analysis by quantitative real time RT-PCR RNA was isolated with the RNeasy mini kit (Qiagen) and cDNA was generated by reverse transcription (Applied Biosystems). […] Gene expression was calculated relative to […] (FW primer: 5′ aga ctg ata cat acg cct gca g 3′, RV primer: 5′ gca ggt tca aat gaa tct tca g 3′).

OT1 CD8+ T-cells = assay: Flow cytometry of surface activation and memory markers on in vitro cultured OT1 CD8+ T-cells; assay type: cell-based, mouse; conditions: 5 μM inhibitor day 0-3, flow cytometry on day 3 and 7
Experimental: Example 2. In vitro culture of splenocytes comprising CD8+ T-cells. OT1 splenocytes (as described in Example 1) were cultured for 3 days at a concentration of 10^6 cells per mL in RPMI medium (Gibco 61870-01) supplemented with 10% FCS, (Gibco 10270-106), 1% Penicillin/Streptomycin (P/S; Gibco 15070-063), 0.1% 13-mercaptoethanol, 1% HEPES (Gibco 15630-080), 1× Non-essential amino acids (Gibco 11140-035), 1% L-glutamine (Gibco 25030-081), 1 mM Sodium Pyruvate (Gibco 11360-039), 100 U/m1 hIL-2 (Glaxo-IMB) and 1 μg/ml ovalbumin N4 peptide (SIINFEKL). To evaluate the effects of IDH2 inhibition on T-cell differentiation, 5 μM of a small molecule IDH2 inhibitor (AG221 or AGI6780) or a DMSO solvent control was added during this 3-day culture period. At day 3, a fraction of the splenocytes was collected and the remaining cells were cultured for 4 additional days with 100 U/ml hIL-2 and 10 ng/ml hIL-7 (Peprotech 200-07) supplementation after washing out the inhibitors and the ovalbumine N4 peptide (FIG. 1). At day 3 and day 7, the activation and differentiation state of CD8+ T-cells was determined by gene expression analysis, flow cytometry and extracellular metabolic flux analyses (see Example 3).
Cells were incubated in a live/dead stain (Fixable aqua dead cell stain kit, Invitrogen) followed by an incubation with different antibody panels.
Antibody panel to determine the differentiation and activation state of in vitro cultured T-cells (see Examples 2 and 4): anti-CD8-PE-texas-Red, anti-CD62L-FITC, anti-CD127-PE, anti-CD27-PerCP-Cy5.5, anti-CD71-PE-Cy7, anti-CD44-APC-Cy7, anti-CD98-APC, anti-CD25-Pacific blue (BD Pharmingen and eBioscience, San Diego, Calif., USA). All those antigens are surface molecules. Cells were gated on living single CD8+ cells before analysis of activation and memory marker expression. For the unstained control, cells were stained with the live/dead stain and anti-CD8-PE-texas-Red.
Cells were acquired on LSR-II flow cytometers from the flow cytometry facility of UNIL and data were analyzed with FlowJo™ 10 software. Antibodies were purchased from BD Phamingen (San Diego, Calif., USA), eBioscience (San Diego, Calif., USA, and Biolegend (San Diego, Calif., USA).

## CC(C)(O)CNc1nc(Nc2ccnc(C(F)(F)F)c2)nc(-c2cccc(C(F)(F)F)n2)n1 [AG221, 2-methyl-1-[[4-[6-(trifluoromethyl)pyridin-2-yl]-6-[[2-(trifluoromethyl)pyridin-4-yl]amino]-1,3,5-triazin-2-yl]amino]propan-2-ol]
[1]
  acetylation of lysine residue 27 of histone H3: increased
  trimethylation of lysine residue 4 of histone H3: increased
[2]; day 11, 5 μM, versus DMSO
  CD62L expression in human CD8+ T-cells: strong upregulation
[2]; day 11, AG221 5 μM, MK2206 1 μM, DMSO control about 35%
  CD8+ cells expressing CD62L: about 75%
[3]; day 3, 5 μM, versus DMSO
  Sell (CD62L) mRNA expression increase: 3 fold
[3]; day 7, 5 μM day 0-3, versus DMSO
  Sell (CD62L) mRNA expression increase: 7 fold
OT1 CD8+ T-cells
  CD62L surface expression compared to DMSO: increased
  other surface markers (CD25, CD44, CD71, CD98, CD27, CD127) compared to DMSO: generally unchanged
